Earlier results as cited in US20110082127A1, “NEW INJECTABLE FORMULATIONS CONTAINING PROGESTERONE” (priority 2004, published 2011).

Conditions: stated by the known art

Compound: OC[C@H]1O[C@@H]2O[C@H]3[C@H](O)[C@@H](O)[C@@H](O[C@H]4[C@H](O)[C@@H](O)[C@@H](O[C@H]5[C@H](O)[C@@H](O)[C@@H](O[C@H]6[C@H](O)[C@@H](O)[C@@H](O[C@H]7[C@H](O)[C@@H](O)[C@@H](O[C@H]8[C@H](O)[C@@H](O)[C@@H](O[C@H]1[C@H](O)[C@H]2O)O[C@@H]8CO)O[C@@H]7CO)O[C@@H]6CO)O[C@@H]5CO)O[C@@H]4CO)O[C@@H]3CO [unsubstituted β-cyclodextrin, β-cyclodextrin]
- water solubility: 1.8 g/100 ml
